This is an account of results in patent US20100204265A1 (priority 2009, published 2010).

One may read the EC50 as the concentration that produces a half-maximal response. A high value points to lower potency in that assay.

This test has as its system ET (Huh-lucubineo-ET) cell line harboring I389luc-ubi-neo/NS3-3′/ET HCV replicon. In words: Replicon assay (HCV replicon, luciferase readout). In kind it is cell-based. The conditions noted are these: Hepatitis C virus. As for the experimental part: A cell line, ET (Huh-lucubineo-ET) is used for screening of compounds for inhibiting HCV RNA dependent RNA polymerase. The ET cell line is stably transfected with RNA transcripts harboring a I389luc-ubi-neo/NS3-3′/ET; replicon with firefly luciferase-ubiquitin-neomycin phosphotransferase fusion protein and EMCV-IRES driven NS3-5B polyprotein containing the cell culture adaptive mutations (E1202G; T1280I; K1846T) (Krieger at al, 2001 and unpublished). The ET cells are grown in DMEM (Dulbeco's Modified Eagle's Medium), supplemented with 10% fetal calf serum, 2 mM Glutamine, Penicillin (100 IU/mL)/Streptomycin (100 μg/mL), 1× nonessential amino acids, and 250 μg/mL G418 (“Geneticin”). They are all available through Life Technologies (Bethesda, Md.). The cells are plated at 0.5−1.0×10^4 cells/well in the 96 well plates and incubated for 24 hrs before adding test compound. The compounds are added to the cells to achieve a final concentration of 0.1 nM to […] and a final DMSO (dimethylsulfoxide) concentration of 0.5%. Luciferase activity is measured 48-72 hours later by adding a lysis buffer and the substrate (Catalog number Glo-lysis buffer E2661 and Bright-Glo luciferase system E2620 Promega, Madison, Wis.). Cells should not be too confluent during the assay. Percent inhibition of replication data is plotted relative to no compound control. Under the same condition, cytotoxicity of the compounds are determined using cell proliferation reagent, WST-1 (Roche, Germany). The compounds showing antiviral activities, but no significant cytotoxicities are chosen to determine EC50 and TC50. For these determinations, a 10 point, 2-fold serial dilution for each compound was used, which spans a concentration range of 1000 fold. EC50 and similarly TC50 values were calculated by fitting % inhibition at each concentration to the following equation:
% inhibition=100%/[(EC50/[I])^b+1]
where b is Hill's coefficient.
Take `COC(=O)[C@H](CCCCNC(=O)OC(C)(C)C)NC(=O)Cc1cn2cc(-c3ccoc3)cc(C(F)(F)F)c2n1` (stereo in doubt) [Compound 153, 6-tert-Butoxycarbonylamino-2-[2-(6-furan-3-yl-8-trifluoromethyl-imidazo[1,2-a]pyridin-2-yl)-acetylamino]-hexanoic acid methyl ester]: the EC50 was 13.9 µM.

`COC(=O)[C@@H](NC(=O)Cc1cn2cc(-c3ccoc3)cc(C(F)(F)F)c2n1)C(C)(C)C` (stereo in doubt) [Compound 294, 2-[2-(6-Furan-3-yl-8-trifluoromethyl-imidazo[1,2-a]pyridin-2-yl)-acetylamino]-3,3-dimethyl-butyric acid methyl ester] had an EC50 above 50 µM.

In turn, `NC(=O)[C@H](CO)NC(=O)Cc1cn2cc(-c3ccoc3)cc(C(F)(F)F)c2n1` (stereo in doubt) [Compound 298, 2-[2-(6-Furan-3-yl-8-trifluoromethyl-imidazo[1,2-a]pyridin-2-yl)-acetylamino]-3-hydroxy-propionamide] showed an EC50 above 50 µM.

`O=C(N[C@@H]1CCN(C(=O)c2nc3c(C(F)(F)F)cc(-c4ccoc4)cn3c2Cl)C1)OCCCl` (stereo in doubt) [Compound 321, [1-(3-Chloro-6-furan-3-yl-8-trifluoromethyl-imidazo[1,2-a]pyridine-2-carbonyl)-pyrrolidin-3-yl]-carbamic acid 2-chloro-ethyl ester] gave an EC50 above 50 µM.

In turn, `O=C(O)c1nc2c(C(F)(F)F)cc(-c3ccoc3)cn2c1Cl` [Compound 101, 3-Chloro-6-furan-3-yl-8-trifluoromethyl-imidazo[1,2-a]pyridine-2-carboxylic acid] came in with an EC50 of 7.01 µM.

With `O=C(c1nc2c(C(F)(F)F)cc(-c3ccoc3)cn2c1Cl)N1CCC(c2ccccc2F)C(O)C1` (stereo not drawn) [Compound 102, (3-Chloro-6-furan-3-yl-8-trifluoromethyl-imidazo[1,2-a]pyridin-2-yl)-[4-(2-fluoro-phenyl)-3-hydroxy-piperidin-1-yl]-methanone], it took 0.0469 µM to reach a half-maximal effect (EC50).

For `O=C(c1nc2c(C(F)(F)F)cc(-c3cn[nH]c3)cn2c1Cl)N1CC=C(c2ccccc2F)C1` [Compound 103, [3-Chloro-6-(1H-pyrazol-4-yl)-8-trifluoromethyl-imidazo[1,2-a]pyridin-2-yl]-[3-(2-fluoro-phenyl)-2,5-dihydro-pyrrol-1-yl]-methanone], the EC50 worked out at 0.0389 µM.

Compound `O=C(c1nc2c(C(F)(F)F)cc(-c3cn[nH]c3)cn2c1Cl)N1CC=C(c2c[nH]cn2)C1` [Compound 104, [3-Chloro-6-(1H-pyrazol-4-yl)-8-trifluoromethyl-imidazo[1,2-a]pyridin-2-yl]-[3-(1H-imidazol-4-yl)-2,5-dihydro-pyrrol-1-yl]-methanone] registered an EC50 of 5.96 µM.

For `O=C(c1nc2c(C(F)(F)F)cc(-c3cn[nH]c3)cn2c1Cl)N1CC=C(c2cncs2)C1` [Compound 105, [3-Chloro-6-(1H-pyrazol-4-yl)-8-trifluoromethyl-imidazo [1,2-a]pyridin-2-yl]-(3-thiazol-5-yl-2,5-dihydro-pyrrol-1-yl)-methanone], the midpoint of the response, the EC50, lay at 0.13 µM.

In turn, `O=C(c1nc2c(C(F)(F)F)cc(-c3ccoc3)cn2c1Cl)N1CC=C(c2cncs2)C1` [Compound 106, (3-Chloro-6-furan-3-yl-8-trifluoromethyl-imidazo[1,2-a]pyridin-2-yl)-(3-thiazol-5-yl-2,5-dihydro-pyrrol-1-yl)-methanone] gave an EC50 of 0.0886 µM.

With `O=C(c1nc2c(C(F)(F)F)cc(-c3cn[nH]c3)cn2c1Cl)N1CC=C(c2cnsc2)C1` [Compound 107, [3-Chloro-6-(1H-pyrazol-4-yl)-8-trifluoromethyl-imidazo [1,2-a]pyridin-2-yl]-(3-isothiazol-4-yl-2,5-dihydro-pyrrol-1-yl)-methanone], it took 0.241 µM to reach a half-maximal effect (EC50).

`CS(=O)(=O)N1CCN(C(=O)c2nc3c(C(F)(F)F)cc(-c4ccoc4)cn3c2Cl)CC1` [Compound 108, (3-Chloro-6-furan-3-yl-8-trifluoromethyl-imidazo[1,2-a]pyridin-2-yl)-(4-methanesulfonyl-piperazin-1-yl)-methanone] came in with an EC50 of 24.1 µM.
